Assay results: patent publication US8192986B2, “Compositions and methods for treatment of protein misfolding diseases” (Whitehead Institute for Biomedical Research, priority 2004, dated 2012)

System: yeast cells expressing low levels of huntingtin
Assay: Huntingtin toxicity in yeast grown in the presence of an ER stress inducer (FIG. 6B)
Assay type: cell-based
Settings: yeast cells grown in the presence of tunicamycin, low levels of huntingtin expressed
From the text: The unfolded protein response in yeast is depicted in FIG. 6A. […] Conversely, expression of constitutively active IRE1 or HAC (proteins that induce the UPR) ameliorated the toxic effects of high level expression of 103 Q huntingtin in yeast (FIGS. 6D and 6E).

## tunicamycin
  huntingtin toxicity in yeast cells: enhanced toxicity
